Data on eleven compounds can be found in ChEMBL document CHEMBL1201862, “PubChem BioAssay data set” (2004).

Among the test systems are MOLT-4; SF-539; SK-MEL-28; SK-OV-3; A498; NCI-H23; HOP-62; DU-145; MDA-MB-231; SF-295; OVCAR-8; SN12C; HCC 2998; Malme-3M; RPMI-8226; OVCAR-4; MDA-N; TK-10; LOX IMVI; HOP-92.
Assay in all cases: NCI tumour cell line growth inhibition, 48 h

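In this assay, cells in 96-well plates receive the compound at five concentrations for 48 hours. Endpoints are linearly interpolated between the surrounding concentrations. Here, GI50 denotes the concentration required for 50% inhibition of growth.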 Activity calls are given as the source filed them. Rule as the data show it: active = GI50 up to about 1.1 µM and inactive = higher.

`C(#C[C@@]12CCC[C@@H]1N(Cc1ccccc1)CO2)c1ccc2c(c1)OCO2`: the GI50 with MOLT-4, with SF-539, in the assay with SK-MEL-28, in the assay on SK-OV-3, in the assay on A498 and with NCI-H23 was > 100 µM (inactive) throughout. For the same compound, the GI50 in the assay with HOP-62, in the assay on DU-145, in the assay with MDA-MB-231, with SF-295, with OVCAR-8 and in the assay with SN12C was > 100 µM (inactive) throughout. Also, the GI50 in the assay with HCC 2998, with Malme-3M, in the assay on RPMI-8226, with OVCAR-4 and in the assay with MDA-N was > 100 µM (inactive) each time.

With `N#Cc1c(N2CCCC2)nsc1Nc1ccccc1`, the GI50 in the assay on MOLT-4, with SF-539, in the assay with SK-MEL-28, with A498, in the assay on NCI-H23 and in the assay on TK-10 was > 100 µM (inactive) each time. In addition, the GI50 in the assay on DU-145, in the assay with MDA-MB-231, in the assay with SF-295, in the assay with OVCAR-8, in the assay with SN12C and in the assay with LOX IMVI was > 100 µM (inactive) throughout. The GI50 in the assay on HOP-92, with HCC 2998, in the assay on Malme-3M, with RPMI-8226, in the assay with OVCAR-4 and in the assay with MDA-N was > 100 µM (inactive) throughout.

`COC(=O)C(CCSC)NC(=O)Cc1ccc(C(=O)c2ccccc2)cc1` (centres undefined): the GI50 was 55 µM (inactive) with MOLT-4; > 100 µM (inactive) in the assay with SK-MEL-28; 40.4 µM (inactive) with SK-OV-3; > 100 µM (inactive) in the assay with A498; 44.8 µM (inactive) with NCI-H23; 88.1 µM (inactive) in the assay with HOP-62. The GI50 is 86.9 µM (inactive) in the assay on DU-145; 37.3 µM (inactive) in the assay with MDA-MB-231; 42.5 µM (inactive) in the assay with SF-295; 73.3 µM (inactive) with OVCAR-8; 50.1 µM (inactive) in the assay on SN12C; 55.7 µM (inactive) in the assay with LOX IMVI. The GI50 in the assay on HOP-92 is 41.8 µM (inactive); with HCC 2998 it was > 100 µM (inactive); with Malme-3M, > 100 µM (inactive); in the assay on RPMI-8226, 46.5 µM (inactive); in the assay with OVCAR-4, > 100 µM (inactive); in the assay on MDA-N, 14.9 µM (inactive).

As to `COc1ccc(/C(=N\Nc2ccccn2)c2ccccn2)cc1`, the GI50 with MOLT-4 was < 0.01 µM (active); with SF-539, 0.0627 µM (active); with SK-MEL-28, 0.336 µM (active); in the assay with SK-OV-3, 0.107 µM (active); in the assay on A498, 38.2 µM (inactive); in the assay on NCI-H23, 0.0272 µM (active). Besides, the GI50 with HOP-62 was 0.217 µM (active); with DU-145 it was 0.29 µM (active); in the assay with MDA-MB-231, < 0.0193 µM (active); in the assay on SF-295, 0.301 µM (active); in the assay with OVCAR-8, < 0.01 µM (active); in the assay with SN12C it was < 0.01 µM (active). Also, the GI50 with HOP-92 was < 0.045 µM (active); in the assay with HCC 2998 it was 2.93 µM (inactive); with Malme-3M it was < 0.01 µM (active); in the assay with RPMI-8226 it was < 0.0268 µM (active); with OVCAR-4, 11.4 µM (inactive); in the assay with MDA-N, 0.631 µM (active).

Consider `Cn1c(=O)oc2cc(Br)ccc21`, for which the GI50 in the assay with MOLT-4, in the assay on SF-539, in the assay with SK-MEL-28, with SK-OV-3, in the assay on A498 and in the assay with NCI-H23 was > 100 µM (inactive) throughout. The GI50 with HOP-62, in the assay with TK-10, with DU-145, in the assay on MDA-MB-231, in the assay with SF-295 and in the assay on OVCAR-8 was > 100 µM (inactive) in each case. The GI50 in the assay on SN12C, with LOX IMVI, in the assay on HCC 2998, with Malme-3M, with RPMI-8226 and with OVCAR-4 was > 100 µM (inactive) in each case. Besides, in the assay with MDA-N, the GI50 is > 100 µM (inactive).

As to `C1CCN2CC3CCCN4CCCC(C2C1)C34` (centres undefined), the GI50 in the assay with MOLT-4, with SF-539, in the assay on SK-MEL-28, in the assay on SK-OV-3, in the assay on A498 and in the assay with NCI-H23 was > 100 µM (inactive) each time. The GI50 in the assay on HOP-62, in the assay on TK-10, with DU-145, in the assay on MDA-MB-231, with SF-295 and in the assay with OVCAR-8 was > 100 µM (inactive) each time. Besides, the GI50 in the assay with SN12C, with LOX IMVI, in the assay on HOP-92, in the assay on HCC 2998, in the assay with Malme-3M and in the assay on RPMI-8226 was > 100 µM (inactive) throughout. Further, the GI50 in the assay with MDA-N is > 100 µM (inactive).

With `O=C(Cc1ccc(Cl)c(Cl)c1)NCC1(N2CCCCC2)CCCCC1`, the GI50 is 35.5 µM (inactive) in the assay with MOLT-4; > 100 µM (inactive) in the assay on SK-OV-3; 60.7 µM (inactive) in the assay on A498; 57.7 µM (inactive) in the assay with NCI-H23; > 100 µM (inactive) in the assay with HOP-62; 28.8 µM (inactive) in the assay on TK-10. Further, the GI50 in the assay on DU-145 was 61 µM (inactive); with MDA-MB-231, 58.5 µM (inactive); in the assay with SF-295, 37.3 µM (inactive); with OVCAR-8 it was 97.3 µM (inactive); in the assay with SN12C, 66.8 µM (inactive); in the assay with LOX IMVI, 36.6 µM (inactive). The GI50 was 78.7 µM (inactive) in the assay on HOP-92; 17 µM (inactive) with HCC 2998; 21.3 µM (inactive) in the assay with Malme-3M; 35.3 µM (inactive) in the assay with RPMI-8226; 64 µM (inactive) in the assay on OVCAR-4; 37 µM (inactive) in the assay with MDA-N.

For `C1CSC2=C(S1)SC1=C(S2)SC(=C2SC3=C(SC4=C(SCCS4)S3)S2)S1`, the GI50 in the assay on MOLT-4, in the assay on SF-539, in the assay with SK-MEL-28, in the assay on SK-OV-3, with A498 and with NCI-H23 was > 100 µM (inactive) throughout. Also, the GI50 in the assay on HOP-62, in the assay on TK-10, in the assay with DU-145, in the assay with MDA-MB-231, in the assay with SF-295 and in the assay on OVCAR-8 was > 100 µM (inactive) in each case. The GI50 in the assay with SN12C, in the assay on HOP-92, in the assay with HCC 2998, in the assay on Malme-3M, in the assay with RPMI-8226 and in the assay with OVCAR-4 was > 100 µM (inactive) in each case. Moreover, the GI50 with MDA-N is > 100 µM (inactive).

On to `N#CC1(C#N)C2CCCCC23OC(=N)C1(C#N)C(c1ccccc1)O3` (centres undefined), for which the GI50 is 25.1 µM (inactive) in the assay on MOLT-4; 17.1 µM (inactive) with SF-539; > 10 µM (inactive) in the assay on SK-MEL-28; > 100 µM (inactive) in the assay with SK-OV-3; 17.8 µM (inactive) with A498; 30.5 µM (inactive) with NCI-H23. In addition, the GI50 in the assay with TK-10 was 16.6 µM (inactive); with DU-145, 20.5 µM (inactive); with MDA-MB-231, 16.4 µM (inactive); with SF-295, 69 µM (inactive); in the assay on OVCAR-8, 21 µM (inactive); in the assay on SN12C, 13.1 µM (inactive). For the same compound, the GI50 is 17.3 µM (inactive) with LOX IMVI; 15.5 µM (inactive) in the assay with HOP-92; 14.2 µM (inactive) in the assay with HCC 2998; 17 µM (inactive) with Malme-3M; 14 µM (inactive) with MDA-N.

`CCOC(=O)C1C(=O)CC(O)(OCC)C(C(=O)OCC)C1c1ccc(OC)cc1` (centres undefined): the GI50 in the assay on MOLT-4, with SK-MEL-28, with A498, in the assay on NCI-H23, in the assay on HOP-62 and with TK-10 was > 100 µM (inactive) throughout. The GI50 in the assay with DU-145, in the assay on MDA-MB-231, in the assay on SF-295, with OVCAR-8, in the assay with SN12C and with LOX IMVI was > 100 µM (inactive) each time. For the same compound, the GI50 in the assay on HOP-92, in the assay with HCC 2998, with Malme-3M, in the assay on OVCAR-4 and in the assay on MDA-N was > 100 µM (inactive) each time.

Consider `CCOC(=O)N/N=C(/N)c1cccc([N+](=O)[O-])c1`, for which the GI50 with MOLT-4, in the assay with SF-539, with SK-MEL-28, with SK-OV-3, with A498 and in the assay on NCI-H23 was > 100 µM (inactive) in each case. The GI50 in the assay with HOP-62, with TK-10, in the assay on DU-145, with MDA-MB-231, in the assay on SF-295 and in the assay with OVCAR-8 was > 100 µM (inactive) in each case. For the same compound, the GI50 with SN12C, in the assay on LOX IMVI, with HOP-92, in the assay with HCC 2998, in the assay on Malme-3M and with OVCAR-4 was > 100 µM (inactive) throughout. The GI50 in the assay with MDA-N is > 100 µM (inactive).
